How the values were obtained:
[1] = molecular target: T1, human B1R receptor (CHO K1 cells stably transfected with the human B1R gene) (Homo sapiens, UniProt P46663); experiment: Functional study on the bradykinin receptor 1 (B1R), Ca2+ fluorescence (Fluo-4) FLIPR/Novostar assay, hB1R cells; format: cell-based; details: CHO-K1, read-out: % inhibition (human B1R) at 10 μM
T1 construct: expressed in transfected cells; host or cells: CHO K1 cells (Chinese hamster ovary), stably transfected
T1 sequence (P46663 1-353): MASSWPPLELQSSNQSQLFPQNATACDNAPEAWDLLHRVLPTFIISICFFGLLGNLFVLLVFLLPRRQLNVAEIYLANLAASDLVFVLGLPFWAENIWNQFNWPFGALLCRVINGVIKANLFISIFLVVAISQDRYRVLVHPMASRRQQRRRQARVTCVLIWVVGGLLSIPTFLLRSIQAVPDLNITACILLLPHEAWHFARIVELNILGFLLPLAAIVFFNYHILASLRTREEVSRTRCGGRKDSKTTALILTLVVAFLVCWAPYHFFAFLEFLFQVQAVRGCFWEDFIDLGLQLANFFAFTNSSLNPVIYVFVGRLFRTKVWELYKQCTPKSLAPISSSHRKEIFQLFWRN
How it was run: (§1)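 Test compounds (10 μM) were added first and the Ca2+ rise was scored as % activation against Lys-Des-Arg9-bradykinin (≥50 nM, human) or Des-Arg9-bradykinin (≥1 μM, rat). After 6-20 min, the matching agonist was given at its EC80, and % inhibition relative to maximal achievable inhibition was calculated.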

[2] = molecular target: T2, B1R receptor of the rat (CHO K1 cells stably transfected with the B1R gene of the rat) (Rattus norvegicus, UniProt P97583); experiment: Functional study on the bradykinin receptor 1 (B1R), Ca2+ fluorescence (Fluo-4) FLIPR/Novostar assay, rB1R cells; format: cell-based; details: CHO-K1, 10 μM, read-out: % inhibition (rat B1R) at 10 μM
T2 construct: expressed in transfected cells; host or cells: CHO K1 cells (Chinese hamster ovary), stably transfected
T2 sequence (P97583 1-337): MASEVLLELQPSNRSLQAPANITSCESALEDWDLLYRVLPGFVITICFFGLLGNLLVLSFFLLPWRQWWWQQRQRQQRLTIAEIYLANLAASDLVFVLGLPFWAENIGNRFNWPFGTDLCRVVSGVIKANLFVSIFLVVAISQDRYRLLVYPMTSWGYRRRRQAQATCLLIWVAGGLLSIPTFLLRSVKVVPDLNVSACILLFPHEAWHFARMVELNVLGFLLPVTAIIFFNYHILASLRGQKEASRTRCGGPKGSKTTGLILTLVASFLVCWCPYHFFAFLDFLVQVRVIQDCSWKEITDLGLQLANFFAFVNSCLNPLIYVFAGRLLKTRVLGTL
How it was run: as §1

inhibition at 10 µM [1]	inhibition at 10 µM [2]	SMILES
22%	51%	CN(C(=O)c1ccc2c(c1)CC[C@H]2N1Cc2cccc(Cl)c2C1=O)C1CCN(CCc2ccncc2)CC1 [Example H-43, (1R)-1-(4-Chloro-3-oxo-1,2-dihydro-isoindol-2-yl)-N-methyl-N-[1-(2-pyridin-4-yl-ethyl)-piperidin-4-yl]-2,3-dihydro-1H-Indene-5-carboxylic acid amide]
94%	94%	CN(C(=O)c1ccc2c(c1)OCC[C@H]2NC(=O)c1ccccc1Cl)C1CCN(c2ccncc2)CC1 [Example H-44, (4R)-4-[(2-Chloro-benzoyl)amino]-N-methyl-N-(1-pyridin-4-yl-piperidin-4-yl)-3,4-dihydro-2H-chromene-7-carboxylic acid amide]
98%	56%	CN(C(=O)c1ccc2c(c1)OCC[C@H]2N1Cc2cccc(Cl)c2C1=O)C1CCN(c2ccncc2)CC1 [Example H-45, (4R)-4-(4-Chloro-3-oxo-1,2-dihydro-isoindol-2-yl)-N-methyl-N-(1-pyridin-4-yl-piperidin-4-yl)-3,4-dihydro-2H-chromene-7-carboxylic acid amide]
100%	103%	CN(C(=O)c1ccc2c(c1)[C@H](NC(=O)C1(c3ccccc3F)CC1)CC2)C1CCN(c2ccncc2)CC1 [Example H-46, (3R)-3-[[1-(2-Fluorophenyl)-cyclopropanecarbonyl]amino]-N-methyl-N-(1-pyridin-4-yl-piperidin-4-yl)-2,3-dihydro-1H-indene-5-carboxylic acid amide]
100%	104%	CN(C(=O)c1ccc2c(c1)[C@H](NC(=O)C1(c3ccccc3F)CCCC1)CC2)C1CCN(c2ccncc2)CC1 [Example H-47, (3R)-3-[[1-(2-Fluorophenyl)-cyclopentanecarbonyl]amino]-N-methyl-N-(1-pyridin-4-yl-piperidin-4-yl)-2,3-dihydro-1H-indene-5-carboxylic acid amide]
11%	75%	CN(C(=O)c1ccc2c(c1)[C@H](NC(=O)c1ccccc1Cl)CC2)C1CCN(Cc2ccnc(N3CCCC3)c2)CC1 [Example H-48, (3R)-3-[(2-Chloro-benzoyl)amino]-N-methyl-N-[1-[(2-pyrrolidin-1-yl-pyridin-4-yl)-methyl]-piperidin-4-yl]-2,3-dihydro-1H-indene-5-carboxylic acid amide]
85%	101%	Cc1cc(N2CCC(CN(C)C(=O)c3ccc4c(c3)[C@H](NC(=O)c3ccccc3Cl)CC4)CC2)ccn1 [Example H-49, (3R)-3-[(2-Chloro-benzoyl)amino]-N-methyl-N-[[1-(2-methyl-pyridin-4-yl)-piperidin-4-yl]-methyl]-2,3-dihydro-1H-indene-5-carboxylic acid amide]
23%	86%	COc1ccc(N2CCC(N(C)C(=O)c3ccc4c(c3)[C@H](NC(=O)c3ccccc3Cl)CC4)CC2)cc1 [Example H-50, (3R)-3-[(2-Chloro-benzoyl)amino]-N-[1-(4-methoxyphenyl)-piperidin-4-yl]-N-methyl-2,3-dihydro-1H-indene-5-carboxylic acid amide]
99%	105%	CN(C(=O)c1ccc2c(c1)[C@H](NC(=O)C1(c3ccccc3Cl)CC1)CC2)C1CCN(c2ccncc2)CC1 [Example H-51, (3R)-3-[[1-(2-Chlorophenyl)-cyclopropanecarbonyl]amino]-N-methyl-N-(1-pyridin-4-yl-piperidin-4-yl)-2,3-dihydro-1H-indene-5-carboxylic acid amide]
98%	73%	Cc1cc(N2CCC(CN(C)C(=O)c3ccc4c(c3)CC[C@H]4N3Cc4cccc(Cl)c4C3=O)CC2)ccn1 [Example H-52, (1R)-1-(4-Chloro-3-oxo-1,2-dihydro-isoindol-2-yl)-N-methyl-N-[[1-(2-methyl-pyridin-4-yl)-piperidin-4-yl]-methyl]-2,3-dihydro-1H-indene-5-carboxylic acid amide]
56%	50%	CN(C(=O)c1ccc2c(c1)CC[C@H]2N1Cc2cccc(Cl)c2C1=O)C1CCN(Cc2ccnc(N3CCCC3)c2)CC1 [Example H-53, (1R)-1-(4-Chloro-3-oxo-1,2-dihydro-isoindol-2-yl)-N-methyl-N-[1-[(2-pyrrolidin-1-yl-pyridin-4-yl)-methyl]-piperidin-4-yl]-2,3-dihydro-1H-indene-5-carboxylic acid amide]
29%	93%	CN(C(=O)c1ccc2c(c1)[C@H](NC(=O)c1ccccc1Cl)CC2)C1CCN(c2ccc(Cl)cc2)CC1 [Example H-54, (3R)-3-[(2-Chloro-benzoyl)amino]-N-[1-(4-chlorophenyl)-piperidin-4-yl]-N-methyl-2,3-dihydro-1H-indene-5-carboxylic acid amide]
99%	104%	Cc1cc(N2CCC(N(C)C(=O)c3ccc4c(c3)[C@H](NC(=O)c3ccccc3Cl)CC4)CC2)ccn1 [Example H-55, (3R)-3-[(2-Chloro-benzoyl)amino]-N-methyl-N-[1-(2-methyl-pyridin-4-yl)-piperidin-4-yl]-2,3-dihydro-1H-indene-5-carboxylic acid amide]
99%	102%	Cc1cc(N2CCC(CCNC(=O)c3ccc4c(c3)[C@H](NC(=O)c3ccccc3Cl)CC4)CC2)ccn1 [Example H-56, (3R)-3-[(2-Chloro-benzoyl)amino]-N-[2-[1-(2-methyl-pyridin-4-yl)-piperidin-4-yl]-ethyl]-2,3-dihydro-1H-indene-5-carboxylic acid amide]
100%	100%	CN(C(=O)c1cc2c(cc1F)[C@H](NC(=O)c1ccccc1Cl)CC2)C1CCN(c2ccncc2)CC1 [Example H-57, (1R)-1-[(2-Chloro-benzoyl)amino]-6-fluoro-N-methyl-N-(1-pyridin-4-yl-piperidin-4-yl)-2,3-dihydro-1H-indene-5-carboxylic acid amide]
100%	98%	CN(C(=O)c1ccc2c(c1)[C@H](NC(=O)C(C)(C)c1ccccc1Cl)CC2)C1CCN(c2ccncc2)CC1 [Example H-58, (3R)-3-[[2-(2-Chlorophenyl)-2-methyl-propanoyl]amino]-N-methyl-N-(1-pyridin-4-yl-piperidin-4-yl)-2,3-dihydro-1H-indene-5-carboxylic acid amide]
99%	103%	Cc1cc(N2CCC(N(C)C(=O)c3ccc4c(c3)[C@H](NC(=O)c3ccccc3Cl)CC4)CC2)nc(C)n1 [Example H-59, (3R)-3-[(2-Chloro-benzoyl)amino]-N-[1-(2,6-dimethyl-pyrimidin-4-yl)-piperidin-4-yl]-N-methyl-2,3-dihydro-1H-indene-5-carboxylic acid amide]
99%	103%	CN(C(=O)c1ccc2c(c1)[C@H](NC(=O)c1ccccc1Cl)CC2)C1CCN(c2ccncc2)CC1(C)C (stereo partly drawn) [Example H-60, (3R)-3-[(2-Chloro-benzoyl)amino]-N-(3,3-dimethyl-1-pyridin-4-yl-piperidin-4-yl)-N-methyl-2,3-dihydro-1H-indene-5-carboxylic acid amide]
32%	77%	CN(C(=O)c1ccc2c(c1)[C@H](NC(=O)c1ccccc1Cl)CC2)C1CCC(c2ccncc2)CC1 (stereo partly drawn) [Example H-61, (3R)-3-[(2-Chloro-benzoyl)amino]-N-methyl-N-(4-pyridin-4-yl-cyclohexyl)-2,3-dihydro-1H-indene-5-carboxylic acid amide]
100%	99%	Cc1cc(C(=O)N[C@@H]2CCc3ccc(C(=O)N(C)C4CCN(c5ccncc5)CC4)cc32)no1 [Example H-62, 5-Methyl-N-[(1R)-6-[methyl-(1-pyridin-4-yl-piperidin-4-yl)-carbamoyl]-2,3-clihydro-1H-inden-1-yl]-isoxazole-3-carboxylic acid amide]
100%	96%	CN(C(=O)c1ccc2c(c1)[C@H](NC(=O)CC(F)(F)F)CC2)C1CCN(c2ccncc2)CC1 [Example H-63, (3R)-N-Methyl-N-(1-pyridin-4-yl-piperidin-4-yl)-3-(3,3,3-trifluoro-propanoylamino)-2,3-dihydro-1H-indene-5-carboxylic acid amide]
